A short description of this data set: collision cross section (DTIM-MS, N2); higher = larger ion. As for the experimental part: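 Collision cross section (CCS) of drug and natural-product chemical standards (validation set 2, measured in this paper). Three independent measurements were made across 2 months; the value taken is their mean (avg_ccs), for the ion adduct given.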

Take `COc1cc([C@@H]2c3cc4c(cc3[C@@H](O[C@@H]3O[C@@H]5CO[C@@H](C)O[C@H]5[C@H](O)[C@H]3O)C3COC(=O)C32)OCO4)cc(OC)c1O` (stereo partly drawn) [Etoposide]: the collision cross section (ion adduct: [M+H]+) worked out at 250.54 Å².

`CN(C)NC(=O)CCC(=O)O` [Daminozide] came in with a collision cross section (ion adduct: [M-H]-) of 135.88 Å².

`Cc1noc(NS(=O)(=O)c2ccc(N)cc2)c1C` [Sulfisoxazole]: the collision cross section reads like this: (ion adduct: [M+H]+) 162.69 Å²; (ion adduct: [M-H]-) 162.87 Å². For the setting “ion adduct: [M+H]+”, `COC1=CC(=O)O[C@@H](CCc2ccccc2)C1` [Dihydrokavain] registered a collision cross section of 149.11 Å². `COc1ccc2c(c1)c(CC(=O)O)c(C)n2C(=O)c1ccc(Cl)cc1` [Indometacin]: the collision cross section (ion adduct: [M+H]+) is reported as 181.26 Å². The compound `Cn1c(=O)c2[nH]cnc2n(C)c1=O` [Theophylline] returned a collision cross section (ion adduct: [M+H]+) of 137.12 Å².

Compound `CCCCCCCC(O)CC(=O)CCc1ccc(O)c(OC)c1` (stereo not drawn) [8-Gingerol] gave a collision cross section (ion adduct: [M-H]-) of 178.08 Å². Compound `Cc1cc(=O)oc2c([N+](=O)[O-])c(O)ccc12` [7-hydroxy-4-methyl-8-nitrocoumarin] showed a collision cross section (ion adduct: [M+H]+) of 144.57 Å². Regarding `COc1cc2c(cc1OC)C(Cc1ccc(Oc3cc(CC4c5cc(OC)c(OC)cc5CCN4C)ccc3O)cc1)N(C)CC2` (stereo not drawn) [Dauricine], the collision cross section runs as follows: (ion adduct: [M+H]+) 248.03 Å²; (ion adduct: [M-H]-) 259.6 Å². For `O=c1c(-c2ccc(O)cc2)coc2cc(O[C@@H]3O[C@H](CO)[C@@H](O)[C@H](O)[C@H]3O)cc(O)c12` [Genistin], the collision cross section runs as follows: (ion adduct: [M+H]+) 207.07 Å²; (ion adduct: [M-H]-) 213.76 Å². Under “ion adduct: [M-H]-”, `COc1ccc([C@@H]2CC(=O)c3c(O)cc(O[C@@H]4O[C@H](CO)[C@@H](O)[C@H](O)[C@H]4O[C@@H]4O[C@@H](C)[C@H](O)[C@@H](O)[C@H]4O)cc3O2)cc1O` [Neohesperidin] showed a collision cross section of 229.5 Å². In the case of `O=C(/C=C/c1ccc(O)c(O)c1)OCCc1ccccc1` [Caffeic acid phenethyl ester], for the setting “ion adduct: [M-H]-”, the collision cross section worked out at 176.94 Å². As for `O=C(Nc1ccc(O)cc1)c1ccccc1O` [Osalmid], the collision cross section was found to be 151.37 Å² (ion adduct: [M+H]+) and 150.88 Å² (ion adduct: [M-H]-). Take `C[C@H]1CC[C@]2(OC1)O[C@H]1C[C@H]3[C@@H]4CC=C5C[C@@H](O)CC[C@]5(C)[C@H]4CC[C@]3(C)[C@H]1[C@@H]2C` [Diosgenin]: the collision cross section (ion adduct: [M+H]+) turned out to be 209.65 Å².

The compound `Nc1ccn([C@@H]2O[C@H](CO)[C@@H](O)C2(F)F)c(=O)n1` [Gemcitabine] yielded a collision cross section (ion adduct: [M+H]+) of 155.86 Å². The compound `CCCCCCCCOC(=O)c1ccccc1C(=O)OCCCCCCCC` [DI-N-OCTYL PHTHALATE] displayed a collision cross section (ion adduct: [M+H]+) of 211 Å². `COc1cc(O)c2c(=O)cc(-c3ccc(O)cc3)oc2c1` [Genkwanin]: the collision cross section is listed as 163.54 Å² (ion adduct: [M+H]+) and 166.12 Å² (ion adduct: [M-H]-).

Where the note is “ion adduct: [M-H]-”, `CCCCC[C@H](O)CC(=O)CCc1ccc(O)c(OC)c1` [6-Gingerol] registered a collision cross section of 170.04 Å².

For the compound `NC(=O)c1cccnc1` [Nicotinamide], the collision cross section (ion adduct: [M+H]+) was found to be 125.25 Å². Compound `O=C(Nc1ccccc1)c1ccccc1I` [Benodanil] returned a collision cross section (ion adduct: [M+H]+) of 152.62 Å² and a collision cross section (ion adduct: [M-H]-) of 156.05 Å². `N#C[C@H](O[C@@H]1O[C@H](CO[C@@H]2O[C@H](CO)[C@@H](O)[C@H](O)[C@H]2O)[C@@H](O)[C@H](O)[C@H]1O)c1ccccc1` [Amygdalin] gave a collision cross section (ion adduct: [M+H]+) of 214.69 Å² and a collision cross section (ion adduct: [M-H]-) of 205.69 Å².

`O=c1cc(-c2ccc(O)c(O)c2)oc2cc(O[C@@H]3O[C@H](CO)[C@@H](O)[C@H](O)[C@H]3O)cc(O)c12` [Luteolin-7-O-glucoside] registered a collision cross section (ion adduct: [M+H]+) of 209.01 Å² and a collision cross section (ion adduct: [M-H]-) of 210.14 Å². Consider `O=C(N[C@H](CO)[C@H](O)c1ccc([N+](=O)[O-])cc1)C(Cl)Cl` [Chloramphenicol], for which, where the note is “ion adduct: [M-H]-”, the collision cross section is given as 166.95 Å².

Take `Nc1nc(N)nc(NC2CC2)n1` [Cyromazine]: the collision cross section (ion adduct: [M+H]+) turned out to be 135.92 Å². As for `O=C(C=CC=Cc1ccccc1)CCc1ccccc1` [Alnustone], the collision cross section was 168.73 Å² (ion adduct: [M+H]+) and 178.13 Å² (ion adduct: [M-H]-).

For the compound `Cc1cc(O)c2c(c1)C(=O)c1cc(O)cc(O)c1C2=O` [Emodin], the collision cross section came to 156.69 Å² (ion adduct: [M+H]+) and 155.06 Å² (ion adduct: [M-H]-). Under “ion adduct: [M+H]+”, `COc1cc(O)cc2c1C(=O)C[C@@H](c1ccccc1)O2` [Alpinetin] showed a collision cross section of 160.76 Å². On the same count and under the same terms, as for `COC(=O)Nc1nc2ccccc2[nH]1` [Carbendazim], the figure is 138.81 Å².

`O=c1ccc2cc(O)ccc2o1` [6-Hydroxycoumarin]: the collision cross section by setting is: (ion adduct: [M+H]+) 129.59 Å²; (ion adduct: [M-H]-) 129.61 Å². Regarding `C=CC[C@]1(O)CC[C@H]2[C@@H]3CCC4=CC(=O)CCC4=C3C=C[C@@]21C` [Altrenogest], the collision cross section is, setting by setting: (ion adduct: [M+H]+) 178.86 Å²; (ion adduct: [M-H]-) 180.56 Å².

The compound `CCCCCC=CC(=O)CCc1ccc(O)c(OC)c1` [6-Shogaol] yielded a collision cross section (ion adduct: [M-H]-) of 167.21 Å². On to `CCCCCCCCCCCCCCCc1cccc(O)c1C(=O)O` [Ginkgolic<U+00A0>Acid<U+00A0>C15:0<U+00A0>], for which the collision cross section (ion adduct: [M-H]-) came to 190.92 Å². For `C=C1C(=O)O[C@H]2[C@H]1CC/C(C)=C\CC[C@@]1(C)O[C@@H]21` [Parthenolide], under “ion adduct: [M+H]+”, the collision cross section was found to be 154.23 Å².

On to `C[C@H]1[C@H](OC(=O)CCC(=O)O)O[C@@H]2O[C@@]3(C)CC[C@H]4[C@H](C)CC[C@@H]1[C@@]24OO3` [Artesunate], for which the collision cross section (ion adduct: [M-H]-) turned out to be 185.75 Å². `CC(=O)OC5CC(=O)O[C@@](C)(C)[C@@H]6CC(=O)[C@]3(C)[C@H](CC[C@@]2(C)[C@@H](OC(=O)[C@H]1O[C@]123)c4ccoc4)[C@@]56C` (stereo partly drawn) [Nomilin]: the collision cross section is, setting by setting: (ion adduct: [M+H]+) 217.15 Å²; (ion adduct: [M-H]-) 219.9 Å². Compound `CC(C)NC(=O)N1CC(=O)N(c2cc(Cl)cc(Cl)c2)C1=O` [Iprodione] returned a collision cross section (ion adduct: [M+H]+) of 180.27 Å².

`CC(C)=CCC[C@](C)(O[C@@H]1O[C@H](CO)[C@@H](O)[C@H](O)[C@H]1O)[C@H]1CC[C@]2(C)[C@@H]1[C@H](O)C[C@@H]1[C@@]3(C)CC[C@H](O)C(C)(C)[C@@H]3[C@@H](O)C[C@]12C` [Ginsenoside F1] yielded a collision cross section (ion adduct: [M-H]-) of 259.18 Å². For the setting “ion adduct: [M-H]-”, `COC(=O)C1=CO[C@@H](O[C@@H]2O[C@H](CO)[C@@H](O)[C@H](O)[C@H]2O)[C@@H]2C(CO)=CC[C@H]12` [Geniposide] came in with a collision cross section of 184.6 Å². Same read-out and setting: for `O=C(O)c1ccccc1O` [Salicylic acid] the value was 121.24 Å²; for `O=c1[nH]c(=O)n(C2CCCO2)cc1F` (stereo not drawn) [Tegafur], 142.34 Å². Regarding `COc1cc(NS(C)(=O)=O)ccc1Nc1c2ccccc2nc2ccccc12` [Amsacrine], the collision cross section is, setting by setting: (ion adduct: [M+H]+) 195.94 Å²; (ion adduct: [M-H]-) 199.97 Å². The compound `CC(C)=CCC[C@](C)(O)[C@H]1CC[C@]2(C)[C@@H]1[C@H](O)C[C@@H]1[C@@]3(C)CC[C@H](O)C(C)(C)[C@@H]3CC[C@]12C` [(20S)-Protopanaxdiol] gave a collision cross section (ion adduct: [M-H]-) of 222.94 Å². `COc1cc(C(=O)O)cc(OC)c1O` [Syringic acid] registered a collision cross section (ion adduct: [M-H]-) of 148.59 Å². As to `O=P(OCCCl)(OCCCl)OCCCl` [Tris(2-chloroethyl) phosphate], under “ion adduct: [M+H]+”, the collision cross section amounted to 151.08 Å². In the case of `COc1c2ccoc2cc2oc(=O)ccc12` [Bergapten], the collision cross section (ion adduct: [M+H]+) is listed as 139.92 Å². As to `C=C(C)C1CC=C(C=NO)CC1` (stereo not drawn) [Perillartine], the collision cross section (ion adduct: [M+H]+) is 138.73 Å². Consider `O=C(CCc1ccc(O)cc1)c1c(O)cc(O)cc1O[C@@H]1O[C@H](CO)[C@@H](O)[C@H](O)[C@H]1O` [Phlorizin], for which the collision cross section (ion adduct: [M-H]-) was found to be 193.11 Å². For `COc1cc2c(cc1OC)[C@@H]1C(=O)c3ccc4c(c3O[C@@H]1CO2)C=CC(C)(C)O4` [Deguelin], the collision cross section is, setting by setting: (ion adduct: [M+H]+) 196.5 Å²; (ion adduct: [M-H]-) 198.36 Å². Turning to `COc1ccc(C[C@H]2COC(=O)[C@@H]2Cc2ccc(O[C@@H]3O[C@H](CO)[C@@H](O)[C@H](O)[C@H]3O)c(OC)c2)cc1OC` [Arctiin], the collision cross section (ion adduct: [M-H]-) worked out at 220.58 Å². For the compound `Cc1cc(=O)oc2cc(O)c(O)cc12` [4-Methyl-6,7-dihydroxycoumarin], the collision cross section by setting is: (ion adduct: [M+H]+) 136.8 Å²; (ion adduct: [M-H]-) 135.33 Å². The corresponding values for `CCOc1cc(NC(C)=O)ccc1C(=O)OC` [Ethopabate] are 151.13 Å² and 158.16 Å². On to `O=C(/C=C/C=C/c1ccc2c(c1)OCO2)N1CCCCC1` [Piperine], for which the collision cross section (ion adduct: [M+H]+) was 177.2 Å². `COc1cc(O)ccc1/C=C/C(=O)c1ccc(O)cc1` [Echinatin]: the collision cross section runs as follows: (ion adduct: [M+H]+) 167.45 Å²; (ion adduct: [M-H]-) 171.54 Å². `Nc1ccc(S(=O)(=O)[N-]c2cnc3ccccc3n2)cc1.[Na+]` [Sulfaquinoxaline sodium] yielded a collision cross section (ion adduct: [M+H]+) of 184.69 Å².

`COc1cc(C(C)=O)ccc1O` [Acetovanillone]: the collision cross section (ion adduct: [M-H]-) worked out at 133.81 Å². Consider `O=C1C[C@@H](c2ccccc2)Oc2cc(O)cc(O)c21` [Pinocembrin], for which the collision cross section is on record as 157.96 Å² (ion adduct: [M+H]+) and 159.74 Å² (ion adduct: [M-H]-). On to `COC(=O)/C=C/c1ccc(O)cc1` [Methyl 4-hydroxycinnamate], for which the collision cross section (ion adduct: [M-H]-) was 139.5 Å². Still for that read-out and setting: as for `CC1(C)CC[C@]2(C(=O)O)CC[C@]3(C)C(=CC[C@@H]4[C@@]5(C)C[C@@H](O)[C@H](O)C(C)(C)[C@@H]5CC[C@]43C)[C@@H]2C1` [Crategolic acid], the figure is 222.53 Å².

In the case of `COc1cc(C=CC(=O)CC(=O)C=Cc2ccc(O)cc2)ccc1O` [Demethoxycurcumin], for the setting “ion adduct: [M+H]+”, the collision cross section was 193.33 Å².
